Source: ChEMBL document CHEMBL4312011, “Synthesis and biological evaluation of triterpenoid thiazoles derived from betulonic acid, dihydrobetulonic acid, and ursonic acid” (Eur J Med Chem, 2020)
Activity calls are given as the source filed them. The calls are words filed in the database; no cut-off is given here.

Experiments:
[1] = Chemical stability of compound in PBS buffer assessed as parent compound remaining at 2 uM at pH 7.4 and 37 degC incubated for 120 mins by RF-MS analysis; format: physicochemical; conditions: read-out: Stability
[2] = Stability in human plasma assessed as parent compound remaining at 2 uM incubated for 120 mins by RF-MS analysis; format: ADME, cell-free; conditions: read-out: Stability
U2OS = assay: Cytotoxicity against human U2OS cells incubated for 72 hrs by MTS assay; format: functional, cell-based
[3] = Stability in human plasma assessed as parent compound remaining at 2 uM incubated for 15 mins by RF-MS analysis; format: ADME, cell-free; conditions: read-out: Stability
HCT-116 [4] = assay: Cytotoxicity against human HCT116 cells incubated for 72 hrs by MTS assay; format: functional, cell-based; conditions: HCT-116, 72 h
CCRF-CEM [5] = assay: Cytotoxicity against human CCRF-CEM cells incubated for 72 hrs by MTS assay; format: functional, cell-based
A549 = assay: Cytotoxicity against human A549 cells incubated for 72 hrs by MTS assay; format: functional, cell-based; conditions: A549, 72 h
[6] = Microsomal stability in human liver microsomes assessed as parent compound remaining at 2 uM incubated for 60 mins by RF-MS analysis; format: ADME, Microsome; conditions: read-out: Stability
[7] = Microsomal stability in human liver microsomes assessed as parent compound remaining at 2 uM incubated for 30 mins by RF-MS analysis; format: ADME, Microsome; conditions: read-out: Stability
[8] = Microsomal stability in human liver microsomes assessed as parent compound remaining at 2 uM incubated for 15 mins by RF-MS analysis; format: ADME, Microsome; conditions: read-out: Stability
[9] = Chemical stability of compound in PBS buffer assessed as parent compound remaining at 2 uM at pH 7.4 and 37 degC incubated for 30 mins by RF-MS analysis; format: physicochemical; conditions: read-out: Stability
BJ = assay: Cytotoxicity against human BJ cells incubated for 72 hrs by MTS assay; format: cell-based
[10] = Chemical stability of compound in PBS buffer assessed as parent compound remaining at 2 uM at pH 7.4 and 37 degC incubated for 15 mins by RF-MS analysis; format: physicochemical; conditions: read-out: Stability
HCT-116 [11] = assay: Cytotoxicity against p53 knockout human HCT116 cells incubated for 72 hrs by MTS assay; format: functional, cell-based; conditions: HCT-116, 72 h
[12] = Chemical stability of compound in PBS buffer assessed as parent compound remaining at 2 uM at pH 7.4 and 37 degC incubated for 60 mins by RF-MS analysis; format: physicochemical; conditions: read-out: Stability
K562 = assay: Cytotoxicity against human K562 cells incubated for 72 hrs by MTS assay; format: functional, cell-based; conditions: K562, 72 h
[13] = Stability in human plasma assessed as parent compound remaining at 2 uM incubated for 30 mins by RF-MS analysis; format: ADME, cell-free; conditions: read-out: Stability
[14] = Stability in human plasma assessed as parent compound remaining at 2 uM incubated for 60 mins by RF-MS analysis; format: ADME, cell-free; conditions: read-out: Stability
[15] = Cytotoxicity against human CEM-DNR-bulk cells incubated for 72 hrs by MTS assay; format: functional, cell-based
[16] = Cytotoxicity against human K562-TAX cells incubated for 72 hrs by MTS assay; format: functional, cell-based
MRC5 = assay: Cytotoxicity against human MRC5 cells incubated for 72 hrs by MTS assay; format: cell-based; conditions: MRC5, 72 h
CCRF-CEM [17] = assay: Induction of apoptosis in human CCRF-CEM cells assessed as late apoptotic cells at 5 times IC50 concentration measured after 24 hrs by AnnexinV-FITC/propidium iodide staining based flow cytometry analysis (reference value: 0.1 %); format: functional
CCRF-CEM [18] = assay: Induction of mitochondrial membrane depolarization in human CCRF-CEM cells at 5 times IC50 measured after 24 hrs by JC-1 staining based flow cytometry analysis (reference value: 8.4 %); format: functional
[19] = Protein binding in human plasma at 10 uM measured after 4 hrs by rapid equilibrium dialysis; format: ADME, cell-free; conditions: read-out: PPB (converted)
CCRF-CEM [20] = assay: Induction of apoptosis in human CCRF-CEM cells assessed as viable cells at 5 times IC50 concentration measured after 24 hrs by AnnexinV-FITC/propidium iodide staining based flow cytometry analysis (reference value: 97 %); format: functional
[21] = Permeability of compound in PBS buffer assessed as permeability coefficient at pH 7.4 incubated for 18 hrs by PAMPA based RF-MS analysis; format: ADME; conditions: pH 7.4, 18 h
CCRF-CEM [22] = assay: Induction of apoptosis in human CCRF-CEM cells assessed as early apoptotic cells at 5 times IC50 concentration measured after 24 hrs by AnnexinV-FITC/propidium iodide staining based flow cytometry analysis (reference value: 2.8 %); format: functional
CCRF-CEM [23] = assay: Induction of apoptosis in human CCRF-CEM cells assessed as necrotic cells at 5 times IC50 concentration measured after 24 hrs by AnnexinV-FITC/propidium iodide staining based flow cytometry analysis (reference value: 0.1 %); format: functional
CCRF-CEM [24] = assay: Induction of apoptosis in human CCRF-CEM cells assessed as increase in caspase 3/7 activity using Ac-DEVD-AMC as substrate at 5 times IC50 concentration measured after 24 hrs by fluorescence assay; format: functional, cell-based
CCRF-CEM [25] = assay: Induction of apoptosis in human CCRF-CEM cells assessed as increase in BAX expression at 5 times IC50 concentration measured after 24 hrs by Western blot analysis; format: functional, cell-based
CCRF-CEM [26] = assay: Cell cycle arrest in human CCRF-CEM cells assessed as decrease in proportion of cells in S phase at 5 times IC50 measured after 24 hrs by propidium iodide/RNase staining based flow cytometry analysis; format: functional
CCRF-CEM [27] = assay: Induction of apoptosis in human CCRF-CEM cells assessed as decrease in Bcl-2 expression at 5 times IC50 concentration measured after 24 hrs by Western blot analysis; format: functional, cell-based
CCRF-CEM [28] = assay: Induction of apoptosis in human CCRF-CEM cells assessed as activation of procaspase 8 at 5 times IC50 concentration measured after 24 hrs by Western blot analysis; format: functional, cell-based
CCRF-CEM [29] = assay: Cell cycle arrest in human CCRF-CEM cells assessed as increase in G2/M phase accumulation at 5 times IC50 measured after 24 hrs by propidium iodide/RNase staining based flow cytometry analysis; format: functional

| Compound | remaining at 2 h, 2 µM [1] [%] | remaining at 2 h, 2 µM [2] [%] | IC50 (U2OS) [µM] | remaining at 0.25 h, 2 µM [3] [%] | IC50 (HCT-116 [4]) [µM] | IC50 (CCRF-CEM [5]) [µM] | IC50 (A549) [µM] | remaining at 1 h, 2 µM [6] [%] | remaining at 0.5 h, 2 µM [7] [%] | remaining at 0.25 h, 2 µM [8] [%] | remaining at 0.5 h, 2 µM [9] [%] | IC50 (BJ) [µM] | remaining at 0.25 h, 2 µM [10] [%] | IC50 (HCT-116 [11]) [µM] | remaining at 1 h, 2 µM [12] [%] | IC50 (K562) [µM] | remaining at 0.5 h, 2 µM [13] [%] | IC50 [15] [µM] | IC50 [16] [µM] | IC50 (MRC5) [µM] | other results |
| --- | --- | --- | --- | --- | --- | --- | --- | --- | --- | --- | --- | --- | --- | --- | --- | --- | --- | --- | --- | --- | --- |
| C=C(C)[C@@H]1CC[C@]2(C(=O)O)CC[C@]3(C)[C@H](CC[C@@H]4[C@@]5(C)CC(SC#N)C(=O)C(C)(C)[C@@H]5CC[C@]43C)[C@@H]12 (some centres not stated) | 69.8 | 7.6 | 20.2 | 99 | 3.3 | 2.4 | 21.2 | 56.8 | 86.4 | 90.1 | 67.5 | 19.8 | 99.9 | 11.9 | 54.2 | 28.5 | 75.9 | 6.8 | 16.6 | 18.7 | remaining at 1 h, 2 µM [14]: 35.7% |
| CC(C)[C@@H]1CC[C@]2(C(=O)O)CC[C@]3(C)[C@H](CC[C@@H]4[C@@]5(C)CC(SC#N)C(=O)C(C)(C)[C@@H]5CC[C@]43C)[C@@H]12 (some centres not stated) | 69.8 | 14 | 15.1 | 99.5 | 3.5 | 0.9 | 12.5 | 1.6 | 35.5 | 62.9 | 99.4 | 5.8 | 99.5 | 3.4 | 90.6 | 3.4 | 94.6 | 14.5 | 5.4 | 4.6 | remaining at 1 h, 2 µM [14]: 56.8% |
| CC(C)[C@@H]1CC[C@]2(C(=O)O)CC[C@]3(C)[C@H](CC[C@@H]4[C@@]5(C)Cc6sc(N)nc6C(C)(C)[C@@H]5CC[C@]43C)[C@@H]12 | 76.3 | 99.9 | 42.9 | 99.3 | 32.4 | 4.5 | 44.5 | 90.8 | 93.4 | 97.7 | 96.1 | > 50 | 99.3 | 47.2 | 80.4 | 43.8 | 99.6 | 27 | 22.8 | > 50 | Activity (CCRF-CEM [17]): 0.4%; Activity (CCRF-CEM [18]): 16.7%; fraction unbound at 4 h, 10 µM [19]: 0.015; Activity (CCRF-CEM [20]): 96.4%; log(permeability) [21]: -5.34; Activity (CCRF-CEM [22]): 3.1%; Activity (CCRF-CEM [23]): 0.1%; Activity (CCRF-CEM [24]): Active; Activity (CCRF-CEM [25]): Active; Activity (CCRF-CEM [26]): Active; Activity (CCRF-CEM [27]): Active; Activity (CCRF-CEM [28]): Active; Activity (CCRF-CEM [29]): Active; remaining at 1 h, 2 µM [14]: 99.9% |
| C=C(C)[C@@H]1CC[C@]2(C(=O)O)CC[C@]3(C)[C@H](CC[C@@H]4[C@@]5(C)Cc6sc(N7CCCC7)nc6C(C)(C)[C@@H]5CC[C@]43C)[C@@H]12 |  |  | > 50 |  | > 50 | 7 | > 50 |  |  |  |  | > 50 |  | > 50 |  | > 50 |  | > 50 | 22.9 | > 50 |  |
| C=C(C)[C@@H]1CC[C@]2(C(=O)O)CC[C@]3(C)[C@H](CC[C@@H]4[C@@]5(C)Cc6sc(NCc7ccccc7)nc6C(C)(C)[C@@H]5CC[C@]43C)[C@@H]12 |  |  | 47.5 |  | > 50 | 3.7 | > 50 |  |  |  |  | > 50 |  | > 50 |  | > 50 |  | > 50 | > 50 | > 50 |  |
| C[C@H]1[C@H](C)CC[C@]2(C(=O)O)CC[C@]3(C)C(=CC[C@@H]4[C@@]5(C)CC(SC#N)C(=O)C(C)(C)[C@@H]5CC[C@]43C)[C@H]12 (some centres not stated) | 15.3 | 36.9 | 33.1 | 99.2 | 32.1 | 4.7 | 42.5 | 14.9 | 54.9 | 61 | 49.3 | > 50 | 90.3 | 32.3 | 37.1 | 34.7 | 100 | 28.2 | 29 | 39.8 | remaining at 1 h, 2 µM [14]: 77.4% |
